According to ChEMBL document CHEMBL4138051, “Antimalarial drug discovery targeting apical membrane antigen 1” (Medchemcomm, 2017):

Biological target: T1, Apical membrane antigen 1 (Plasmodium falciparum, UniProt Q94661)
T1 sequence (Q94661 whole entry): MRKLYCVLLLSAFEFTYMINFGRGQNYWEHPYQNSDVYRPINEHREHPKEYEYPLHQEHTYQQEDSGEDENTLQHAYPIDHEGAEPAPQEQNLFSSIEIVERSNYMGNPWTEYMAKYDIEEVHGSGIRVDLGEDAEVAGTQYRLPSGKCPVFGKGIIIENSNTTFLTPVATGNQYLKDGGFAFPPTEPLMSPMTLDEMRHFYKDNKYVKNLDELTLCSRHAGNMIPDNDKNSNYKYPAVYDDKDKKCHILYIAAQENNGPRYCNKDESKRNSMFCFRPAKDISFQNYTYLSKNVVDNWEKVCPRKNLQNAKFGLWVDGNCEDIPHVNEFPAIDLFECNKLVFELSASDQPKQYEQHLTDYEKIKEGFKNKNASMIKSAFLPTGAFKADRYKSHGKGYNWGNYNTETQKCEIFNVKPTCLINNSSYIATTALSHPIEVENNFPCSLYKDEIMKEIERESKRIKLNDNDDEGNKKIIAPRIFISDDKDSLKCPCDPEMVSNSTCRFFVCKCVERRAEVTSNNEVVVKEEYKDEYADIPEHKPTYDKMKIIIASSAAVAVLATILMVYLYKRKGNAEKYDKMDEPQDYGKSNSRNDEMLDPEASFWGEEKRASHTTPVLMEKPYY
Test: Displacement of 5-FAM-Ahx-ALPLFSKFGSRMH from Plasmodium falciparum AMA1 by fluorescence anisotropy assay

COc1ccc(CN2CC(OCc3ccccc3F)CN(C(=O)CCc3c(C)nc4ncnn4c3C)CC2=O)cc1 (stereo unspecified)
IC50: 24 µM
